{"source": "patent US12336536B2", "about": "“Method for controlling herbicide resistant or tolerant weeds” (BASF Agro B.V., priority 2015, dated 2025)", "system": "ryegrass (LOLMU) biotypes", "assay": "Greenhouse test, control of resistant weed biotypes, post-emergence, ryegrass", "format": "in vivo, Lolium multiflorum", "conditions": "for Herbicidal activity: post-emergence, scale 0 to 100", "description": "The herbicidal activity of herbicide A on resistant weed biotypes was tested in comparison with certain commercial herbicides by the following greenhouse experiments:\nThe culture containers used were plastic flowerpots containing loamy sand with approximately 3.0% of humus as the substrate. The seeds of the test plants were sown separately for each species. Six blackgrass (ALOMY) (10-103, 10-170, 09-591, 10-123, 11-215, 11-146) and six ryeg rass (LOLMU) (12-166, 12-143, 12-165, 12-307, 13-304, 13-313) biotypes with varying degrees of resistance towards a range of modes of action according to the HRAC (Herbicide Resistance Action Committee) classification on mode of action 2010 (see e.g http://www.hracglobal.com/pages/classificationofherbicidesiteofaction.aspx) were tested alongside two non-resistant biotypes (14-116 and 13-243), see Tables 1 and 2 below.\nFor the post-emergence treatment, the test plants were first grown to a height of 3 to 15 cm, depending on the plant habit, and only then treated with the active ingredients which had been suspended or emulsified in water. For this purpose, the test plants were either sown directly and grown in the same containers, or they were first grown separately as seedlings and transplanted into the test containers a few days prior to treatment.\nDepending on the species, the plants were kept at 10-25° C. or 20-35° C. The test period extended over 2 to 4 weeks. During this time, the plants were tended, and their response to the individual treatments was evaluated.\nThe racemic mixture (±)-2-exo-(2-Methylbenzyloxy)-1-methyl-4-isopropyl-7-oxabicyclo[2.2.1]heptane was used as herbicide A and formulated as emulsifiable concentrates with an active ingredient concentration of 50 g/l, 100 g/l or 750 g/l respectively.\nFlufenacet was used as a commercial concentrated solution formulation having an active ingredient concentration of 500 g/l (Cadou).\nImazamox was used as a water dispersible granule (70% WG).\nEvaluation of the herbicidal activity was carried out using a scale from 0 to 100. 100 means complete destruction of at least the aerial moieties, and 0 means no damage, or normal course of growth. A good herbicidal activity is given at values of at least 70 and a very good herbicidal activity is given at values of at least 85.", "data": [{"substance": "(±)-2-exo-(2-Methylbenzyloxy)-1-methyl-4-isopropyl-7-oxabicyclo[2.2.1]heptane [Herbicide A]", "values": [{"measurement": "Herbicidal activity", "setting": "BT 12-143, resistant HRAC group A, B, C, E, K, 125 g ai/ha", "value": 80}, {"measurement": "Herbicidal activity", "setting": "BT 12-143, resistant HRAC group A, B, C, E, K, 250 g ai/ha", "value": 95}, {"measurement": "Herbicidal activity", "setting": "BT 12-165, resistant HRAC group A, B, E, K, 125 g ai/ha", "value": 95}, {"measurement": "Herbicidal activity", "setting": "BT 12-165, resistant HRAC group A, B, E, K, 250 g ai/ha", "value": 100}, {"measurement": "Herbicidal activity", "setting": "BT 12-166, resistant HRAC group A, B, E, K, 125 g ai/ha", "value": 90}, {"measurement": "Herbicidal activity", "setting": "BT 12-166, resistant HRAC group A, B, E, K, 250 g ai/ha", "value": 90}, {"measurement": "Herbicidal activity", "setting": "BT 12-307, resistant HRAC group B, F, K, O, 125 g ai/ha", "value": 70}, {"measurement": "Herbicidal activity", "setting": "BT 12-307, resistant HRAC group B, F, K, O, 250 g ai/ha", "value": 90}, {"measurement": "Herbicidal activity", "setting": "BT 13-243, Sensitive standard, 125 g ai/ha", "value": 75}, {"measurement": "Herbicidal activity", "setting": "BT 13-243, Sensitive standard, 250 g ai/ha", "value": 90}, {"measurement": "Herbicidal activity", "setting": "BT 13-304, resistant HRAC group A, B, E, K, 125 g ai/ha", "value": 85}, {"measurement": "Herbicidal activity", "setting": "BT 13-304, resistant HRAC group A, B, E, K, 250 g ai/ha", "value": 95}, {"measurement": "Herbicidal activity", "setting": "BT 13-313, resistant HRAC group A, B, C, E, K, 125 g ai/ha", "value": 70}, {"measurement": "Herbicidal activity", "setting": "BT 13-313, resistant HRAC group A, B, C, E, K, 250 g ai/ha", "value": 95}, {"measurement": "herbicidal activity (summary in words)", "setting": "post-emergence treatment, various biotypes of ryegrass (LOLMU) with varying degrees of resistance", "value": "very good herbicidal activity (a very good herbicidal activity is given at values of at least 85)"}]}]}
